Source: ChEMBL document CHEMBL1135516, “Three-dimensional quantitative structure-activity relationship analysis of ligand binding to human sequence antidigoxin monoclonal antibodies using comparative molecular field analysis” (J Med Chem, 2002)
The source made the active and inactive calls. No cut-off for these calls is given here.

How the values were obtained:
[1] = tested on: Monoclonal antibody (mAb); test: Binding affinity against human monoclonal antibody (mAb)-7F2
[2] = tested on: Monoclonal antibody (mAb); test: Binding affinity against human monoclonal antibody (mAb)-5C2
[3] = tested on: Monoclonal antibody (mAb); test: Binding affinity against human monoclonal antibody (mAb)-11E6
[4] = tested on: Monoclonal antibody (mAb); test: Binding affinity against human monoclonal antibody (mAb)-1B3
[5] = tested on: Monoclonal antibody (mAb); test: Binding affinity against murine monoclonal antibody (mAb)-40-50

SMILES	IC50 ratio [1]	IC50 ratio [2]	IC50 ratio [3]	IC50 ratio [4]	Relative Ki [5]
CC(=O)O[C@H]1C[C@H](O[C@H]2[C@@H](O)C[C@H](O[C@H]3[C@@H](O)C[C@H](O[C@H]4CC[C@@]5(C)[C@H](CC[C@@H]6[C@@H]5CC[C@]5(C)[C@@H](C7=CC(=O)OC7)CC[C@]65O)C4)O[C@@H]3C)O[C@@H]2C)O[C@H](C)[C@H]1O	25	48	20	3.9	
CC(=O)O[C@H]1[C@H]2O[C@]23[C@@H]2CC[C@@H]4C[C@@H](O)CC[C@]4(C)[C@H]2CC[C@]3(C)[C@H]1c1ccc(=O)oc1	1700	570	800	98000	
C[C@]12CC[C@@H](O)C[C@@H]1CC[C@@H]1[C@@H]2CC[C@]2(C)C(=O)CC[C@@H]12	1300	inactive	1800	inactive	
C[C@]12C=CC(=O)C=C1CC[C@@H]1[C@@H]2[C@@H](O)C[C@@]2(C)[C@H]1CC[C@]2(O)C(=O)COC(=O)CCC(=O)O	3400			160000	
CC(=O)O[C@H]1C[C@H](O[C@H]2[C@@H](O)C[C@H](O[C@H]3[C@@H](O)C[C@H](O[C@H]4CC[C@@]5(C)[C@H](CC[C@@H]6[C@@H]5C[C@@H](O)[C@]5(C)[C@@H](C7=CC(=O)OC7)CC[C@]65O)C4)O[C@@H]3C)O[C@@H]2C)O[C@H](C)[C@H]1O[C@@H]1O[C@H](CO)[C@@H](O)[C@H](O)[C@H]1O	1.4	1.1	1.6	1.6	
CO[C@H]1[C@@H](O)[C@@H](C)O[C@@H](O[C@H]2CC[C@@]3(C)[C@H](CC[C@@H]4[C@@H]3CC[C@]3(C)[C@@H](C5=CC(=O)OC5)C(O)C[C@]43O)C2)[C@@H]1O (some centres not stated)					35
CC(=O)O[C@@H]1C[C@H]2[C@@H](CC[C@@H]3C[C@@H](O[C@H]4C[C@H](O)[C@H](O[C@H]5C[C@H](O)[C@H](O[C@H]6C[C@H](O)[C@H](O)[C@@H](C)O6)[C@@H](C)O5)[C@@H](C)O4)CC[C@@]32C)[C@@]2(O)CCC(C3=CC(=O)OC3)[C@@]12C (some centres not stated)					0.5
CO[C@@H]1[C@H](O)[C@@H](O[C@@H]2C[C@H]3CC[C@@H]4[C@H](CC[C@]5(C)[C@@H](C6=CC(=O)OC6)CC[C@]45O)[C@@]3(C)[C@H](O)C2)O[C@@H](C)[C@@H]1O					0.5
CO[C@H]1C(O)[C@H](O[C@H]2CC[C@@]3(C)[C@H](CC[C@@H]4[C@@H]3CC[C@]3(C)[C@@H](C5=CC(=O)OC5)CC[C@]43O)C2)O[C@@H](C)[C@@H]1O[C@@H]1O[C@H](CO[C@@H]2O[C@H](CO)[C@@H](O)[C@H](O)[C@H]2O)[C@@H](O)[C@H](O)[C@H]1O (some centres not stated)	8.6	7.6	18	97	
CC(=O)O[C@H]1CC[C@@]2(C)[C@H](CC[C@@H]3[C@@H]2CC[C@]2(C)[C@@H](C4=CC(=O)OC4)[C@@H](O)C[C@]32O)C1					74
C[C@]12C=CC(=O)C=C1CC[C@@H]1[C@@H]2C(=O)C[C@@]2(C)[C@H]1CC[C@]2(O)C(=O)CO	No inhibition	3400	No inhibition	No inhibition	
C[C@H]1O[C@@H](O[C@H]2[C@@H](O)C[C@H](O[C@H]3CC[C@@]4(C)[C@H](CC[C@@H]5[C@@H]4C[C@@H](O)[C@]4(C)[C@@H](C6=CC(=O)OC6)CC[C@]54O)C3)O[C@@H]2C)C[C@H](O)[C@@H]1O	1	1.3	0.9	1.6	
C[C@]12CCC(=O)C=C1CC[C@@H]1[C@@H]2[C@@H](O)C[C@@]2(C)[C@H]1CC[C@]2(O)C(=O)CO	1100	650	3700	No inhibition	
C[C@H]1O[C@@H](O[C@H]2[C@@H](O)C[C@H](O[C@H]3[C@@H](O)C[C@@H](O[C@H]4CC[C@@]5(C)[C@H](CC[C@@H]6[C@@H]5C[C@@H](O)[C@]5(C)[C@@H](C7=CC(=O)OC7)[C@@H](O)C[C@]65O)C4)O[C@@H]3C)O[C@@H]2C)C[C@H](O)[C@@H]1O					33
CC(=O)O[C@]1(C(C)=O)CC[C@H]2[C@@H]3CCC4=C/C(=N/OCC(=O)O)CC[C@]4(C)[C@H]3CC[C@@]21C	No inhibition			No inhibition	
CC(=O)O[C@H]1C[C@H](O[C@H]2CC[C@@]3(C)[C@H](CC[C@@H]4[C@@H]3C[C@@H](O)[C@]3(C)C(C5=CC(=O)OC5)CC[C@]43O)C2)O[C@H](C)[C@H]1O[C@H]1C[C@H](O)[C@H](O[C@H]2C[C@H](O)[C@H](O)[C@@H](C)O2)[C@@H](C)O1 (some centres not stated)	1	0.9	1.5	0.9	
C[C@]12CC[C@H]3[C@@H](CCC4=CC(=O)CC[C@@]43C)[C@@H]1CC[C@@H]2O	100	120	110	inactive	
CC(=O)O[C@H]1C[C@]2(O)[C@@H]3CC[C@@H]4C[C@@H](O)CC[C@]4(C)[C@H]3CC[C@]2(C)[C@H]1C1=CC(=O)OC1					8600
C[C@]12CC[C@H]3[C@@H](CC[C@]4(O)C[C@@H](O)CC[C@]34CO)[C@@]1(O)CC[C@@H]2C1=CC(=O)OC1					4
CC(=O)O[C@]1(C(C)=O)CC[C@H]2[C@@H]3C=C(Cl)C4=CC(=O)CC[C@]4(C)[C@H]3CC[C@@]21C	No inhibition			No inhibition	

SMILES	IC50 ratio [1]	IC50 ratio [2]	IC50 ratio [3]	IC50 ratio [4]	Relative Ki [5]
CC(=O)O[C@H]1C[C@]2(O)[C@@H]3CC[C@@H]4C[C@@H](O[C@H]5C[C@H](O)[C@H](O)[C@@H](C)O5)CC[C@]4(C)[C@H]3CC[C@]2(C)[C@H]1C1=CC(=O)OC1					4
C[C@]12CC[C@@H]3c4ccc(O)cc4CC[C@H]3[C@@H]1CC[C@@H]2O	inactive	inactive	inactive	inactive	
C[C@]12CC[C@H](O)C[C@H]1CC[C@@H]1[C@@H]2C[C@@H](O)[C@]2(C)[C@@H]([C@@H]3COC(=O)C3)CC[C@]12O					300
C[C@]12C[C@H](O)[C@H]3[C@@H](CCC4=CC(=O)CC[C@@]43C)[C@@H]1CC[C@@H]2C(=O)CO	390	420	970	14000	
C[C@@H]1O[C@@H](O[C@@H]2C=C3CC[C@@H]4[C@H](CC[C@]5(C)[C@@H](c6ccc(=O)oc6)CC[C@]45O)[C@@]3(C)CC2)[C@H](O)[C@H](O)[C@H]1O	69	400	800	670	
C[C@H]1O[C@@H](O[C@H]2[C@@H](O)C[C@H](O[C@H]3[C@@H](O)C[C@H](O[C@H]4CC[C@@]5(C)[C@H](CC[C@@H]6[C@@H]5CC[C@]5(C)[C@H](C7COC(=O)C7)CC[C@]65O)C4)O[C@@H]3C)O[C@@H]2C)C[C@H](O)[C@@H]1O (some centres not stated)	1800			340	
C[C@]12CCC(=O)C=C1CC[C@@H]1[C@@H]2C(=O)C[C@@]2(C)[C@H]1CC[C@]2(O)C(=O)CO	No inhibition	No inhibition	No inhibition	No inhibition	
C[C@H]1O[C@@H](O[C@@H]2CC[C@@]3(O)CC[C@@H]4[C@H](CC[C@]5(C)[C@@H](C6=CC(=O)OC6)CC[C@]45O)[C@@]3(C=O)C2)C[C@H](O)[C@@H]1O	2100	3000	2500	6200	
C[C@]12CC[C@H](O)C[C@H]1CC[C@@H]1[C@@H]2CC[C@]2(C)[C@@H](c3ccc(=O)oc3)CC[C@]12O	550	250	260	6700	
C[C@]12CC[C@H](O)CC1=CC[C@@H]1[C@@H]2CC[C@]2(C)C(=O)CC[C@@H]12				No inhibition	
CC1CC(O[C@H]2CC[C@@]3(C)[C@H](CC[C@@H]4[C@@H]3CC[C@]3(C)[C@@H](C5=CC(=O)OC5)CC[C@]43O)C2)CC(O)C1O (some centres not stated)	29	47	25	36	
C[C@]12CC[C@@H](O)C[C@H]1CC[C@@H]1[C@@H]2C[C@@H](O)[C@]2(C)[C@@H](C3=CC(=O)OC3)CCC12O (some centres not stated)					12
C[C@H]1O[C@@H](O[C@H]2[C@@H](O)C[C@H](O[C@H]3[C@@H](O)C[C@H](O[C@H]4CC[C@@]5(C)[C@H](CC[C@@H]6[C@@H]5CC[C@]5(C)[C@@H](C7=CC(=O)OC7)[C@@H](OC=O)C[C@]65O)C4)O[C@@H]3C)O[C@@H]2C)C[C@H](O)[C@@H]1O					35
C[C@]12CCC(=O)C=C1CC[C@@H]1[C@@H]2[C@@H](O)C[C@]2(C=O)[C@@H](C(=O)CO)CC[C@@H]12	540	550	760	inactive	
CC(C)CCC[C@@H](C)[C@H]1CC[C@H]2[C@@H]3CC=C4C[C@@H](O)CC[C@]4(C)[C@H]3CC[C@]12C	inactive	inactive	inactive	inactive	
CC(=O)OCC(=O)[C@@]1(O)CC[C@H]2[C@@H]3CCC4=CC(=O)C=C[C@]4(C)[C@H]3[C@@H](O)C[C@@]21C	12000			No inhibition	
C[C@]12CC[C@H](O)CC1CC[C@@H]1[C@@H]2CC[C@]2(C)[C@@H](C3=CC(=O)OC3)CC[C@]12O (single isomer, unassigned)	4.1	3.6	6.7	4900	
C[C@H]1O[C@@H](O[C@H]2[C@@H](O)C[C@H](O[C@H]3[C@@H](O)C[C@@H](O[C@H]4CC[C@@]5(C)[C@H](CC[C@@H]6[C@@H]5C[C@@H](O)[C@]5(C)[C@@H](C7=CC(=O)OC7)CC[C@]65O)C4)O[C@@H]3C)O[C@@H]2C)C[C@H](O)[C@@H]1O					280
C[C@H]1O[C@@H](O[C@H]2[C@@H](O)C[C@H](O[C@H]3CC[C@@]4(C)[C@H](CC[C@@H]5[C@@H]4CC[C@]4(C)[C@@H](C6=CC(=O)OC6)CC[C@]54O)C3)O[C@@H]2C)C[C@H](O)[C@@H]1O	14	14	11	4.9	
